# Source: patent US11591336B2 (Relay Therapeutics, Inc., priority 2017, dated 2023)
# Structures can show the parent of a compound that is named as a salt.
# Biological target: SHP2 (Homo sapiens (Human), UniProt Q06124)
# Assay: SHP2 Allosteric Inhibition Assay (DiFMUP prompt fluorescence)
# Type: biochemical
# Conditions: 0.25 nM SHP2 activated with 0.5 μM peptide IRS1_pY1172(dPEG8)pY1222; substrate DiFMUP 100 μM; 25° C.
row,IC50,SMILES
1,< 1000 nM,"Cc1nccc(Oc2n[nH]c3nc(N4CCC5(CC4)CO[C@@H](C)[C@H]5N)cnc23)c1Cl [Compound 517, (3S,4S)-8-(3-((3-chloro-2-methylpyridin-4-yl)oxy)-1H-pyrazolo[3,4-b]pyrazin-6-yl)-3-methyl-2-oxa-8-azaspiro[4.5]decan-4-amine]"
2,< 1000 nM,"CC1(CN)CCN(c2cnc3c(Oc4cc(N)nc(Cl)c4Cl)n[nH]c3n2)CC1 [Compound 518, 4-((6-(4-(aminomethyl)-4-methylpiperidin-1-yl)-1H-pyrazolo[3,4-b]pyrazin-3-yl)oxy)-5,6-dichloropyridin-2-amine hydrochloride]"
3,< 1000 nM,C[C@@H]1OCC2(CCN(c3cnc4c(N5CCCc6c5ccc(C#N)c6[C@@H]5CC(=O)N(C)C5)n[nH]c4n3)CC2)[C@@H]1N [Compound 519]
4,< 1000 nM,C[C@@H]1OCC2(CCN(c3cnc4c(N5CCCc6c([C@H]7CC(=O)N(C)C7)cccc65)n[nH]c4n3)CC2)[C@@H]1N [Compound 521]
5,< 1000 nM,C[C@@H]1OCC2(CCN(c3cnc4c(N5CCCc6c5ccc(C#N)c6[C@@H]5CCCO5)n[nH]c4n3)CC2)[C@@H]1N [Compound 522]
6,< 1000 nM,C[C@@H]1OCC2(CCN(c3cnc4c(N5CCCc6c([C@@H]7CC(=O)N(C)C7)cccc65)n[nH]c4n3)CC2)[C@@H]1N [Compound 523]
7,< 1000 nM,C[C@@H]1OCC2(CCN(c3cnc4c(N5CCCc6c5ccc(C#N)c6[C@H]5CCCO5)n[nH]c4n3)CC2)[C@@H]1N [Compound 524]
8,< 1000 nM,C[C@@H]1OCC2(CCN(c3cnc4c(N5CCCc6c5ccc(C#N)c6[C@H]5CC(=O)N(C)C5)n[nH]c4n3)CC2)[C@@H]1N [Compound 525]
9,< 1000 nM,C[C@@H]1OCC2(CCN(c3cnc4c(N5CCN([C@H]6C[C@@](C)(O)C6)c6cc(C#N)ccc65)n[nH]c4n3)CC2)[C@@H]1N [Compound 526]
10,< 1000 nM,C[C@@H]1OCC2(CCN(c3cnc4c(N5CCN([C@H]6C[C@](C)(O)C6)c6cc(C#N)ccc65)n[nH]c4n3)CC2)[C@@H]1N [Compound 527]
11,< 1000 nM,C[C@@H]1OCC2(CCN(c3cnc4c(N5CCCc6c5ccc(C#N)c6CC#N)n[nH]c4n3)CC2)[C@@H]1N [Compound 528]
12,< 1000 nM,C[C@@H]1OCC2(CCN(c3cnc4c(N5CCN(CCF)c6cc(C#N)ccc65)n[nH]c4n3)CC2)[C@@H]1N [Compound 529]
13,< 1000 nM,C[C@@H]1OCC2(CCN(c3cnc4c(N5CCN(C6CC(F)(F)C6)c6cc(C#N)ccc65)n[nH]c4n3)CC2)[C@@H]1N [Compound 530]
14,< 1000 nM,C[C@@H]1OCC2(CCN(c3cnc4c(N5CCCc6ncsc65)n[nH]c4n3)CC2)[C@@H]1N [Compound 531]
15,< 1000 nM,C[C@@H]1OCC2(CCN(c3cnc4c(N5CCN(C67CC(F)(C6)C7)c6cc(C#N)ccc65)n[nH]c4n3)CC2)[C@@H]1N [Compound 532]
16,1000 to 10000 nM,CO[C@H]1C[C@H](N2CCN(c3n[nH]c4nc(N5CCC6(CC5)CO[C@@H](C)[C@H]6N)cnc34)c3ccc(C#N)cc32)C1 [compound 472]
